Assay results from US12077503B2, “Substituted cyclic amides and their use as herbicides” (FMC CORPORATION, priority 2015, dated 2024).

How the values were obtained:
Type in all cases: in vivo
[1] = test system: ragweed (common ragweed, Ambrosia elatior); assay: Test A postemergence; conditions: Ambrosia artemisiifolia, post-emergence, 240 h, read-out: Plant response rating, Ragweed; for pest or weed control at 125 g/ha: 125 g ai/ha, postemergence, visual injury after approximately 10 d, 0 to 100 scale (0 no effect, 100 complete control)
How it was run: (§1)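 Preemergence soil spray on seeded pots or post-emergence spray on 1–2 leaf plants, in loam–sand blend. Greenhouse ~10 d. Visual rating 0–100 against untreated plants.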

[2] = test system: pigweed (Amaranthus retroflexus); assay: Test A postemergence; conditions: Amaranthus retroflexus, post-emergence, 240 h, read-out: Plant response rating, Pigweed; for pest or weed control at 125 g/ha: 125 g ai/ha, postemergence, visual injury after approximately 10 d, 0 to 100 scale (0 no effect, 100 complete control)
How it was run: as §1

[3] = test system: Galium (catchweed bedstraw, Galium aparine); assay: Test A postemergence; conditions: Galium, post-emergence, 240 h, read-out: Plant response rating, Galium; for pest or weed control at 125 g/ha: 125 g ai/ha, postemergence, visual injury after approximately 10 d, 0 to 100 scale (0 no effect, 100 complete control)
How it was run: as §1

[4] = test system: giant foxtail (Setaria faberii); assay: Test A postemergence; conditions: Setaria faberi, post-emergence, 240 h, read-out: Plant response rating, Foxtail, Giant; for pest or weed control at 125 g/ha: 125 g ai/ha, postemergence, visual injury after approximately 10 d, 0 to 100 scale (0 no effect, 100 complete control)
How it was run: as §1

corn (Zea mays) = assay: Test A postemergence; conditions: Zea mays, post-emergence, 240 h; for Corn plant response rating (crop injury, 0 = no effect, 100 = complete kill) at 125 g/ha: 125 g ai/ha, postemergence, visual injury after approximately 10 d, 0 to 100 scale (0 no effect, 100 complete control)
How it was run: as §1

[5] = test system: blackgrass (Alopecurus myosuroides); assay: Test A postemergence; conditions: Alopecurus myosuroides, post-emergence, 240 h, read-out: Plant response rating, Blackgrass; for pest or weed control at 125 g/ha: 125 g ai/ha, postemergence, visual injury after approximately 10 d, 0 to 100 scale (0 no effect, 100 complete control)
How it was run: as §1

[6] = test system: wheat (Triticum aestivum); assay: Test A postemergence; conditions: Triticum aestivum, post-emergence, 240 h, read-out: Plant response rating, Wheat; for plant injury at 125 g/ha: 125 g ai/ha, postemergence, visual injury after approximately 10 d, 0 to 100 scale (0 no effect, 100 complete control)
How it was run: as §1

[7] = test system: barnyardgrass (Echinochloa crus-galli); assay: Test A postemergence; conditions: Echinochloa crus-galli, post-emergence, 240 h, read-out: Plant response rating, Barnyardgrass; for pest or weed control at 125 g/ha: 125 g ai/ha, postemergence, visual injury after approximately 10 d, 0 to 100 scale (0 no effect, 100 complete control)
How it was run: as §1

Kochia (Kochia scoparia) [8] = assay: Test A postemergence; conditions: Bassia scoparia, post-emergence, 240 h, read-out: Plant response rating, Kochia; for pest or weed control at 125 g/ha: 125 g ai/ha, postemergence, visual injury after approximately 10 d, 0 to 100 scale (0 no effect, 100 complete control)
How it was run: as §1

[9] = test system: ryegrass, Italian (Italian ryegrass, Lolium multiflorum); assay: Test A preemergence; conditions: Lolium multiflorum, pre-emergence, 240 h, read-out: Plant response rating, Ryegrass, Italian; for pest or weed control at 125 g/ha: 125 g ai/ha, visual rating after approx. 10 d, 0 to 100 scale where 0 is no effect and 100 is complete control
How it was run: as §1

[10] = test system: ragweed (common ragweed, Ambrosia elatior); assay: Test A preemergence; conditions: Ambrosia artemisiifolia, pre-emergence, 240 h, read-out: Plant response rating, Ragweed; for pest or weed control at 125 g/ha: 125 g ai/ha, visual rating after approx. 10 d, 0 to 100 scale where 0 is no effect and 100 is complete control; for pest or weed control at 125 g/ha / pest or weed control at 500 g/ha: preemergence; for pest or weed control at 500 g/ha: 500 g ai/ha, 0 to 100 scale, 0 = no effect, 100 = complete control
How it was run: as §1

[11] = test system: pigweed (Amaranthus retroflexus); assay: Test A preemergence; conditions: Amaranthus retroflexus, pre-emergence, 240 h, read-out: Plant response rating, Pigweed; for pest or weed control at 125 g/ha: 125 g ai/ha, visual rating after approx. 10 d, 0 to 100 scale where 0 is no effect and 100 is complete control; for pest or weed control at 125 g/ha / pest or weed control at 500 g/ha: preemergence; for pest or weed control at 500 g/ha: 500 g ai/ha, 0 to 100 scale, 0 = no effect, 100 = complete control
[12] = test system: giant foxtail (Setaria faberii); assay: Test A preemergence; conditions: Setaria faberi, pre-emergence, 240 h, read-out: Plant response rating, Foxtail, Giant; for pest or weed control at 125 g/ha: 125 g ai/ha, visual rating after approx. 10 d, 0 to 100 scale where 0 is no effect and 100 is complete control; for pest or weed control at 125 g/ha / pest or weed control at 500 g/ha: preemergence; for pest or weed control at 500 g/ha: 500 g ai/ha, 0 to 100 scale, 0 = no effect, 100 = complete control
How it was run: as §1

[13] = test system: barnyardgrass (Echinochloa crus-galli); assay: Test A preemergence; conditions: Echinochloa crus-galli, pre-emergence, 240 h, read-out: Plant response rating, Barnyardgrass; for pest or weed control at 125 g/ha: 125 g ai/ha, visual rating after approx. 10 d, 0 to 100 scale where 0 is no effect and 100 is complete control; for pest or weed control at 125 g/ha / pest or weed control at 500 g/ha: preemergence; for pest or weed control at 500 g/ha: 500 g ai/ha, 0 to 100 scale, 0 = no effect, 100 = complete control
How it was run: as §1

Kochia (Kochia scoparia) [14] = assay: Test A preemergence; conditions: Bassia scoparia, pre-emergence, 240 h, read-out: Plant response rating, Kochia; for pest or weed control at 125 g/ha: 125 g ai/ha, visual rating after approx. 10 d, 0 to 100 scale where 0 is no effect and 100 is complete control; for pest or weed control at 125 g/ha / pest or weed control at 500 g/ha: preemergence; for pest or weed control at 500 g/ha: 500 g ai/ha, 0 to 100 scale, 0 = no effect, 100 = complete control
How it was run: as §1

[15] = Postemergence, 31 g ai/ha, visual injury after approx. 10 d, 0 to 100 scale, 0 no effect, 100 complete control
[16] = Preemergence, 31 g ai/ha, 0 to 100 scale (0 no effect, 100 complete control)

Molecule `CN1C[C@H](c2cccc(C(F)(F)F)c2)[C@@H](C(=O)Nc2ccccc2C2CC2)C1=O` [Compound 749] has a pest or weed control at 125 g/ha [1] of 0%, a pest or weed control at 125 g/ha [2] of 0% and a pest or weed control at 125 g/ha [3] of 0%. For the same molecule, the pest or weed control at 125 g/ha [4] was 0%, the Corn plant response rating (crop injury, 0 = no effect, 100 = complete kill) at 125 g/ha (corn (Zea mays)) was 0% and the pest or weed control at 125 g/ha [5] was 0%. It also gave a plant injury at 125 g/ha [6] of 0%, a pest or weed control at 125 g/ha [7] of 0% and a pest or weed control at 125 g/ha (Kochia (Kochia scoparia) [8]) of 0%. The pest or weed control at 125 g/ha ([9]; preemergence) was 0%, the pest or weed control at 500 g/ha ([9]; 500 g ai/ha, preemergence, 0 to 100 scale, 0 = no effect, 100 = complete control) was 20% and the pest or weed control at 125 g/ha [10] was 0%. The pest or weed control at 500 g/ha [10] was 0%, the pest or weed control at 125 g/ha [11] was 0% and the pest or weed control at 500 g/ha [11] was 0%. It also gave a pest or weed control at 125 g/ha [12] of 50%, a pest or weed control at 500 g/ha [12] of 90% and a pest or weed control at 125 g/ha [13] of 0%. It also gave a pest or weed control at 500 g/ha [13] of 20%, a pest or weed control at 125 g/ha (Kochia (Kochia scoparia) [14]) of 0% and a pest or weed control at 500 g/ha (Kochia (Kochia scoparia) [14]) of 20%.

Work on `Cc1ccc([C@H]2CNC(=S)[C@@H]2C(=O)Nc2cccc(F)c2F)cc1C` [Compound 765] yielded a pest or weed control at 125 g/ha [1] of 0%, a pest or weed control at 125 g/ha [2] of 0% and a pest or weed control at 125 g/ha [3] of 0%. It also gave a pest or weed control at 125 g/ha [4] of 0%, a Corn plant response rating (crop injury, 0 = no effect, 100 = complete kill) at 125 g/ha (corn (Zea mays)) of 0% and a pest or weed control at 125 g/ha [5] of 0%. For the same molecule, the plant injury at 125 g/ha [6] was 0%, the pest or weed control at 125 g/ha [7] was 70% and the pest or weed control at 125 g/ha (Kochia (Kochia scoparia) [8]) was 0%. It also gave a pest or weed control at 125 g/ha ([9]; preemergence) of 0%, a pest or weed control at 125 g/ha [10] of 0% and a pest or weed control at 500 g/ha [10] of 30%. The pest or weed control at 125 g/ha [11] was 0%, the pest or weed control at 500 g/ha [11] was 0% and the pest or weed control at 125 g/ha [12] was 30%. The pest or weed control at 500 g/ha [12] was 80%, the pest or weed control at 125 g/ha [13] was 100% and the pest or weed control at 500 g/ha [13] was 100%. It also gave a pest or weed control at 125 g/ha (Kochia (Kochia scoparia) [14]) of 0% and a pest or weed control at 500 g/ha (Kochia (Kochia scoparia) [14]) of 0%.

Molecule `Cc1cc([C@H]2CN(C)C(=O)[C@@H]2C(=O)Nc2cccc(F)c2F)cc(C)c1C` [Compound 796] has a pest or weed control at 125 g/ha [1] of 0%, a pest or weed control at 31 g/ha [1, 15] of 0% and a pest or weed control at 125 g/ha [2] of 20%. For the same molecule, the pest or weed control at 31 g/ha [2, 15] was 0%, the pest or weed control at 125 g/ha [3] was 40% and the pest or weed control at 31 g/ha [3, 15] was 0%. It also gave a pest or weed control at 125 g/ha [4] of 90%, a pest or weed control at 31 g/ha [4, 15] of 80% and a Corn plant response rating (crop injury, 0 = no effect, 100 = complete kill) at 125 g/ha (corn (Zea mays)) of 90%. For the same molecule, the Corn plant response rating (crop injury, 0 = no effect, 100 = complete kill) at 31 g/ha (corn (Zea mays); [15]) was 70%, the pest or weed control at 125 g/ha [5] was 30% and the pest or weed control at 31 g/ha [5, 15] was 0%. It also gave a plant injury at 31 g/ha [6, 15] of 30%, a pest or weed control at 125 g/ha [7] of 90% and a pest or weed control at 31 g/ha [7, 15] of 80%. It also gave a pest or weed control at 125 g/ha (Kochia (Kochia scoparia) [8]) of 0%, a pest or weed control at 31 g/ha (Kochia (Kochia scoparia) [8]; [15]) of 0% and a pest or weed control at 125 g/ha ([9]; preemergence) of 20%. For the same molecule, the pest or weed control at 31 g/ha [9, 16] was 0%, the pest or weed control at 125 g/ha [10] was 0% and the pest or weed control at 31 g/ha [10, 16] was 0%. For the same molecule, the pest or weed control at 125 g/ha [11] was 40%, the pest or weed control at 31 g/ha [11, 16] was 20% and the pest or weed control at 125 g/ha [12] was 90%. It also gave a pest or weed control at 31 g/ha [12, 16] of 90%, a pest or weed control at 125 g/ha [13] of 90% and a pest or weed control at 31 g/ha [13, 16] of 70%. It also gave a pest or weed control at 125 g/ha (Kochia (Kochia scoparia) [14]) of 20% and a pest or weed control at 31 g/ha (Kochia (Kochia scoparia) [14]; [16]) of 0%.
